In PubChem BioAssay (NCI):
Values joined by “and” are separate entries in the source; they are usually repeats but may differ in a detail not shown here. Equal entries are not always repeated.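 Growth conditions: 96-well plates. Treatment: test compound, 48 hours, 5 concentrations. Analysis: linear interpolation between bracketing concentrations; unreached endpoints set to highest concentration. GI50 is the concentration that inhibits growth by half. TGI marks complete inhibition of growth.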

Legend:
Test in all cases: NCI tumour cell line growth inhibition, 48 h
SN12C renal = test system: SN12C renal
HS 578T breast = test system: HS 578T breast
COLO 205 colon = test system: COLO 205 colon
NCI-H226 lung = test system: NCI-H226 lung
NCI-H522 lung = test system: NCI-H522 lung
M14 melanoma = test system: M14 melanoma
HCT-116 colon = test system: HCT-116 colon
HT29 colon = test system: HT29 colon
SK-MEL-5 melanoma = test system: SK-MEL-5 melanoma
NCI/ADR-RES ovarian = test system: NCI/ADR-RES ovarian

SMILES	GI50 (SN12C renal)	TGI (SN12C renal) [µM]	GI50 (HS 578T breast)	TGI (HS 578T breast)	GI50 (COLO 205 colon)	TGI (COLO 205 colon)	GI50 (NCI-H226 lung)	TGI (NCI-H226 lung)	GI50 (NCI-H522 lung)	TGI (NCI-H522 lung)	GI50 (M14 melanoma)	TGI (M14 melanoma) [µM]	GI50 (HCT-116 colon)	TGI (HCT-116 colon)	GI50 (HT29 colon)	TGI (HT29 colon)	GI50 (SK-MEL-5 melanoma) [µM]	TGI (SK-MEL-5 melanoma)	GI50 (NCI/ADR-RES ovarian)	TGI (NCI/ADR-RES ovarian) [µM]
COc1ccc(-c2ccc(-c3ccc(C(=N)N)o3)o2)cc1	2.02 µM	4.59	4.33 µM	18.4 µM	1.25 µM	2.94 µM	22 µM	42.8 µM	1.09 µM	3.48 µM	1.47 µM	3.87	1.07 µM	3.01 µM	0.484 µM	2.82 µM	2.8	12.1 µM	1.88 µM	10.1
OCC#Cc1ccccc1C#CCCCCCC#Cc1ccccc1C#CCO	19.2 µM	33.6	21.7 µM	43.7 µM	22.8 µM	72.2 µM	21.8 µM	38.9 µM	14.6 µM	29.6 µM	15.4 µM	29.2	12.7 µM	25.2 µM	21.6 µM	> 100 µM	18.9	33.1 µM	18.8 µM	36.7
CN(C)c1ccc(/C=C/c2cc[n+](C)c(/C=C/c3ccc(N(C)C)cc3)c2)cc1	0.273 µM	1.15	0.491 µM	16.6 µM	0.176 µM	0.356 µM	0.271 µM	5.43 µM	0.267 µM	1.72 µM	0.376 µM	1.65	0.278 µM	1.24 µM	0.274 µM	2.65 µM	0.204	0.465 µM	3.81 µM	18.7
COC(=O)[C@@H](C)C[C@H](Cc1ccccc1)NC(=O)c1csc([C@@H](C[C@H](C(C)C)N(C)C(=O)[C@@H](NC(=O)[C@H]2CCCCN2C)C2CC2)OC(C)=O)n1	0.00115 µM and 0.00165 µM	> 16.5	0.00112 µM and 0.00165 µM	> 16.5 µM	0.000369 µM and < 0.00165 µM	0.00336 µM and < 0.00165 µM	0.009 µM and 0.00417 µM	1.18 µM	0.000247 µM and < 0.00165 µM	0.000988 µM and < 0.00165 µM	0.000455 µM and < 0.00165 µM	< 0.00165	0.00043 µM and 0.00165 µM	0.011 µM	0.000264 µM and 0.00165 µM	0.00135 µM and 0.00208 µM	–	0.0138 µM and 0.00203 µM	0.0488 µM and 0.0603 µM	> 16.5
O=C1C[C@@H]2/C(=C(O)\C=C\c3ccccc3)C(=O)C=C[C@@H]2O1	2.15 µM	5.64	5.27 µM	60.5 µM	0.992 µM	2.62 µM	1.94 µM	4.45 µM	0.206 µM	0.615 µM	0.435 µM	2.63	0.382 µM	1.6 µM	0.844 µM	2.4 µM	2.01	4.82 µM	0.69 µM	3.4
COc1cc(-c2nc(SCCC(C)C)nc(Nc3ccc(S(N)(=O)=O)cc3)c2C#N)cc(OC)c1OC	1.81 µM	3.51	2.21 µM	7.77 µM	2.06 µM	5.08 µM	1.67 µM	4.64 µM	3.52 µM	> 100 µM	2.9 µM	24.7	2.01 µM	4.85 µM	2.25 µM	5.13 µM	1.59	3.01 µM	3.03 µM	> 100
Cn1cc(-c2ccc(-c3ccc(C4=NC5(CC5)C(=O)N4C[C@@H]4CCN(C(=O)C5CC5)C4)cc3)cc2)cn1	17.5 µM	77.3	19.2 µM	84.1 µM	15.6 µM	93.5 µM	16 µM	51.2 µM	12.3 µM	40.6 µM	20.2 µM	> 100	11.7 µM	> 100 µM	12.5 µM	> 100 µM	2.46	15.2 µM	10.4 µM	> 100
O=c1c(O)c(-c2cc(O)c(O)c(O)c2)oc2cc(O)cc(O)c12	–	[…]	–	> 100 µM	–	> 100 µM	–	57.1 µM	–	> 100 µM	–	> 100	–	34.1 µM	–	38.9 µM	–	> 100 µM	–	53.2
CC12CCC(Br)C(C)(C)C1CC=C1C(=O)OCC1O2 (centres undefined)	–	> 55.9	–	55 µM	–	34.7 µM	–	23.2 µM	–	11.7 µM	–	> 51.9	–	> 44.5 µM	–	87.5 µM	–	> 100 µM	–	56.9
COc1cc2c(cc1OC)C13CCN4CC5CCOC6CC(=O)N2C1C6C5CC43 (centres undefined)	–	> 100	–	> 100 µM	–	> 100 µM	–	> 100 µM	–	> 100 µM	–	> 100	–	> 100 µM	–	> 100 µM	–	> 100 µM	–	> 100
CCNC(=O)O[C@H]1CN[C@H](C#Cc2cc3ncnc(Nc4ccc(OCc5cccc(F)c5)c(Cl)c4)c3s2)C1	5.71 µM	> 25	4.82 µM	24.6 µM	6.9 µM	> 17.7 µM	7.09 µM	> 21.1 µM	0.371 µM	5.91 µM	> 22.6 µM	> 25	7.43 µM	> 25 µM	9.47 µM	> 25 µM	10.2	> 25 µM	6.19 µM	> 25
COc1cc(C2CC(c3ccc(Nc4ccnc5cc(Cl)ccc45)cc3)=NN2c2ccc(Cl)cc2)cc(OC)c1OC (centres undefined)	7.56 µM	> 100	2.18 µM	> 100 µM	3.28 µM	31.5 µM	4.77 µM	> 100 µM	1.85 µM	50.2 µM	2.01 µM	9.61	3.08 µM	> 100 µM	2.66 µM	> 100 µM	2.68	15.6 µM	1.7 µM	> 100
CCN(CC)c1ccc(C(=O)c2ccc(N(CC)CC)cc2)cc1	0.787 µM	35.5	0.237 µM	1 µM	0.515 µM	3.44 µM	2.54 µM	61.6 µM	0.278 µM	1.67 µM	0.614 µM	> 30.1	0.453 µM	13.6 µM	0.359 µM	3.78 µM	0.384	12.7 µM	0.355 µM	1.89
C=C(c1ccccc1)[C@@]1(O)CC[C@@H]1N(CC#N)Cc1ccccc1	–	46.8	–	65 µM	–	30.4 µM	–	> 100 µM	–	47.8 µM	–	32.6	–	30.3 µM	–	40 µM	–	31.8 µM	–	43.8
O=C1C(=O)c2cccnc2-c2ncccc21	0.25 µM	0.848	0.244 µM	1.08 µM	1.03 µM	2.51 µM	0.696 µM	2.05 µM	0.126 µM	0.332 µM	0.159 µM	0.441	0.0401 µM	0.159 µM	1.04 µM	2.33 µM	0.239	0.801 µM	0.0898 µM	0.281
CCCCCCCc1cc2c3c(nc4ccccc42)C(=O)c2cccnc2-c3n1	4.81 µM	10.8	4.86 µM	11.6 µM	5.05 µM	9.59 µM	6.82 µM	16.3 µM	1.14 µM	3.07 µM	2.5 µM	6.9	0.375 µM	3.35 µM	5.99 µM	27.7 µM	4.16	8.37 µM	4.33 µM	12.6
CN(Cc1cc(C(C)(C)C)cc(Br)c1O)Cc1cc(C(C)(C)C)cc(Br)c1O	–	15.2	–	7.65 µM	–	28.4 µM	–	13.3 µM	–	7.33 µM	–	14.9	–	9.46 µM	–	15.9 µM	–	7.76 µM	–	11.1
CN(C)CCNC(=O)c1ccc(NC(=O)c2nc([N+](=O)[O-])cn2C)cc1	–	> 100	–	> 100 µM	–	> 100 µM	–	> 100 µM	–	> 100 µM	–	> 100	–	> 100 µM	–	> 100 µM	–	> 100 µM	–	> 100
Cc1cnc(C(=O)Nc2nc3ccc(S(=O)(=O)Nc4ccc(C5(C(F)(F)F)CC5)cc4)cc3[nH]2)cn1	0.519 µM	5.87	0.367 µM	6.54 µM	0.414 µM	9.35 µM	0.566 µM	6.34 µM	0.251 µM	11.2 µM	0.328 µM	2.74	0.452 µM	10.5 µM	0.364 µM	10.9 µM	0.232	3.85 µM	0.26 µM	1.69
CC(C)CC(NC(=O)OC(C)(C)C)C(=O)Nc1ccc(Nc2nc(F)nc(-c3c4ccccc4cn3C)n2)cc1 (centres undefined)	–	> 100	–	> 100 µM	–	49.3 µM	–	> 100 µM	–	> 100 µM	–	> 100	–	> 100 µM	–	54.9 µM	–	> 100 µM	–	> 100
O=C1CCc2c(sc3[nH]c(=S)n(Cc4ccc(Cl)cc4)c(=O)c23)C1	0.384 µM	> 84.7	0.46 µM	> 100 µM	1.92 µM	3.71 µM	1.99 µM	14.5 µM	0.34 µM	1.68 µM	0.477 µM	> 56.3	0.366 µM	> 100 µM	3.27 µM	> 100 µM	0.362	1.13 µM	0.408 µM	> 41.8
O=C1C(Cl)=C(NCc2ccco2)C(=O)c2ccccc21	25.9 µM	> 100	3.2 µM	10.1 µM	9.11 µM	26.4 µM	18.8 µM	> 60.7 µM	7.15 µM	> 55.2 µM	4.31 µM	12.1	7.09 µM	49.5 µM	6.14 µM	> 100 µM	1.62	3.11 µM	31.2 µM	> 100
NCCCNCCCCNC(=O)C(O)NC(=O)CCCCCCN=C(N)N (centres undefined)	2040 µM	> 5000	2070 µM	750 µM and 3990 µM	1580 µM	750 µM and > 5000 µM	2430 µM	750 µM and > 5000 µM	1350 µM	636 µM and 2860 µM	2450 µM	> 3810	1830 µM	750 µM and > 4790 µM	> 3580 µM	> 5000 µM	1730	> 750 µM and 2820 µM	2190 µM	> 5000
Cc1cc(C)c(-n2c(-c3ccc(Br)cc3)cs/c2=N\N=C2C=C(C(C)(C)C)C(=O)C(C(C)(C)C)=C2)c(C)c1	–	> 100	–	62.5 µM	–	> 100 µM	–	> 100 µM	–	> 100 µM	–	> 100	–	> 100 µM	–	> 100 µM	–	> 100 µM	–	> 100
O=C(/C=C/c1ccc(C(F)(F)F)cc1)c1ccc(Nc2nc(NCCO)nc(Nc3ccc(Cl)cc3)n2)cc1	5.53 µM	17.5	2.82 µM	15.6 µM	4.8 µM	17.3 µM	4.29 µM	18.7 µM	7.82 µM	23.6 µM	3.5 µM	13.4	1.48 µM	2.83 µM	2.32 µM	6.37 µM	14	29.6 µM	5.58 µM	26
O=C1c2ccccc2S(=O)(=O)c2cc(-c3nn[nH]n3)ccc21	–	> 100	–	> 100 µM	–	> 100 µM	–	> 100 µM	–	> 100 µM	–	> 100	–	> 100 µM	–	> 100 µM	–	> 100 µM	–	> 100
